In patent publication US20110009433A1, “BICYCLIC PYRROLE COMPOUND” (DAINIPPON SUMITOMO PHARMA CO., LTD., priority 2008, published 2011):
Counter-ions that a name gives are not always drawn.

Legend:
[1] = Hygroscopicity measured at room temperature (weight change under moisture adsorption/desorption); format: physicochemical; settings: humidity of 0 to 90%
Protocol: (§1) The hygroscopicity was measured at room temperature for each of the crystalline monohydrochloride 0.5 hydrate of Example 1 (compound A) produced by the method of the present invention and the amorphous powders of the compound of Example 6 of International Publication No. 2006/068163 (compound B) produced by a conventional technique.

[2] = Storage stability under a light source: residual rate by HPLC and appearance after two week storage; format: physicochemical; settings: for residual rate: HPLC area percentage; for change in color after the stability test (in words) / stability under a light source (in words): both 1000 lux and 4000 lux
Protocol: as §1, with “residual rates after two week storage under a light source of 1000 lux and 4000 lux were” for “hygroscopicity was”, “measured” for “measured at room temperature”
The residual rate (%) of a compound was determined by the area percentage of the residual rate of the compound measured using high performance liquid chromatography (HPLC). The HPLC measurement conditions were as follows:
Column: CAPCELL PAK C18 UG120 (4.6 mm I.D.×250 mm)
Mobile phase (A/B): 10 mM sodium phosphate buffer (pH=6.9)/CH3CN
Mobile phase (ratio of B): 30% (0 min) →90% (45 min)
Column temperature: 40° C.

[3] = biological target: T1, human recombinant DPP IV (Homo sapiens, UniProt P27487); assay: In vitro DPP-IV inhibitory action measurement test; format: biochemical; settings: preincubated 100 to 110 minutes, substrate Gly-Pro-MCA 40 μmol/L
T1 construct: purchased R&D system
T1 sequence (P27487 whole entry): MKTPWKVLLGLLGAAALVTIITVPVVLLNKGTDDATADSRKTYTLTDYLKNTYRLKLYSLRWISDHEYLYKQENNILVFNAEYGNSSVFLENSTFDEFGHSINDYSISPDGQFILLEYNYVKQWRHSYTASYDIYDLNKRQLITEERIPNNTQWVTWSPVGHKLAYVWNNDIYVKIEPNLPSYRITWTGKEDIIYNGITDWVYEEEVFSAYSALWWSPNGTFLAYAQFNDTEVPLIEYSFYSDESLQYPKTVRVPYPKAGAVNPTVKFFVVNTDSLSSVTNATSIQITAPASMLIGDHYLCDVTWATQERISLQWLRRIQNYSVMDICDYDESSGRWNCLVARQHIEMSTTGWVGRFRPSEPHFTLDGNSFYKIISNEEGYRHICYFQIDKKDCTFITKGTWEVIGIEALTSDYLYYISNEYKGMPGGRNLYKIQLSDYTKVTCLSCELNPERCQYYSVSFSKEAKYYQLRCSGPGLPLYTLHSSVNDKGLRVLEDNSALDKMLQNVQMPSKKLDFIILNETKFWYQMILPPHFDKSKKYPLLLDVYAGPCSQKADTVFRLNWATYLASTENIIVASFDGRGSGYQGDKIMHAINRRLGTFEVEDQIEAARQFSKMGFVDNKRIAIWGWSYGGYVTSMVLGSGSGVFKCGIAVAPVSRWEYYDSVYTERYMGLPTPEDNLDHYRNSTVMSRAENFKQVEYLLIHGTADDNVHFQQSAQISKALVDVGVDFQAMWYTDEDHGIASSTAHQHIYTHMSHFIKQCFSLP
Protocol: Solutions containing test compounds were prepared at various concentrations and added to microassay plates. Further, human recombinant DPP IV (R&D system) was added and preincubated at room temperature for 100 to 110 minutes, followed by adding a substrate (Glycyl-L-proline 4-methylcoumaryl-7-amide, Peptide Institute, Inc.; final concentration: 40 μmol/L) to start the enzymatic reaction. The enzymatic reaction rate was determined by measuring the fluorescence change with time for 10 minutes after 10 minutes elapsed from the start of addition of the substrate using a fluorescence plate reader (excitation wavelength: 380 nm, measurement wavelength: 460 nm). From the results obtained, the compound concentration showing 50% inhibition was calculated as an IC50 value.

[4] = two week storage, 1000 Lux, 11% RH
[5] = two week storage, 4000 Lux, 10% RH

change in the weight (hygroscopicity) [1] | appearance (color) ([2]; Initial) | residual rate ([2]; Initial) | change in color after the stability test (in words) ([2]; two week storage) | stability under a light source (in words) ([2]; two week storage) | appearance (color) [2, 4] | residual rate [2, 4] | appearance (color) [2, 5] | residual rate [2, 5] | melting point | IC50 [3] | Structure (SMILES)
−5.0 to 9.0% | Pale yellow | 100.0% | apparently changed in color to yellow | low stability | Yellow | 99.2% | Yellow | 97.4% |  |  | Cl.Cn1c(=O)c2c(cc(N3CCC[C@@H](N)C3)n2Cc2cc(F)ccc2Cl)n(C)c1=O [Compound B, reference compound]
 |  |  |  |  |  |  |  |  | 205 to 208 °C |  | Cn1c(=O)c2c(cc(N3CCC[C@@H](N)C3)n2Cc2cc(F)ccc2Cl)n(C)c1=O (as salt: hydrochloride) (hydrate or solvate) [Compound A, 6-[(3R)-3-aminopiperidin-1-yl]-5-(2-chloro-5-fluorobenzyl)-1,3-dimethyl-1H-pyrrolo[3,2-d]pyrimidine-2,4(3H,5H)-dione monohydrochloride hemihydrate]
no change in the weight | Pale yellow | 100.0% | no change in color | extremely high stability | Pale yellow | 100.0% | Pale yellow | 99.9% |  | 0.71 nM | Cn1c(=O)c2c(cc(N3CCC[C@@H](N)C3)n2Cc2cc(F)ccc2Cl)n(C)c1=O [Compound A, 6-[(3R)-3-aminopiperidin-1-yl]-5-(2-chloro-5-fluorobenzyl)-1,3-dimethyl-1H-pyrrolo[3,2-d]pyrimidine-2,4(3H,5H)-dione monohydrochloride hemihydrate]
